{"source": "PubChem BioAssay AID624132", "about": "(Broad Institute, 2012)", "note": "Inconclusive results are not listed."}
{"tested_on": "Clone20 osteoblast Shn3 3'UTR firefly luciferase, 24 h", "test": "reduction of Shn3 3'UTR-driven luciferase in osteoblasts – cell-based, Clone20 osteoblasts, firefly luciferase, cherry-picked, dose response (AID 624132)", "units": {"AC50": "nM"}}
{"smiles": "CC1=CC2OC3CC4OC(=O)C=CC=CC(C(C)O)OCC(O)C(C)CC(=O)OCC2(CC1O)C4(C)C31CO1", "note": "(stereo not drawn)", "AC50": "< 260"}
{"smiles": "C[C@H]1[C@@H](OS(=O)(=O)O)C[C@@H]2C[C@H]([C@@H](O)c3cc(=O)[nH]c(=O)[nH]3)NC3=NC[C@H]1N32", "AC50": 1320}
{"smiles": "CC1=CC2OC3CC4OC(=O)C=CC=CC(C(C)O)OCC(O)C5(C)OC5C(=O)OCC2(CC1O)C4(C)C31CO1", "note": "(stereo not drawn)", "AC50": "< 260"}
{"smiles": "CC(=O)OCC12CC(OC(=O)CC(C)C)C(C)=CC1OC1C(O)C(OC(C)=O)C2(C)C12CO2", "note": "(stereo not drawn)", "AC50": "< 260"}
{"smiles": "CC(=O)OC[C@]12CCC(C)=C[C@H]1O[C@@H]1[C@H](O)[C@@H](OC(C)=O)[C@@]2(C)[C@]12CO2", "AC50": "< 260"}
{"smiles": "CC1=CC2OC3CC4OC(=O)C=CC=CC(=O)OCCC(C)C(O)C(=O)OCC2(CC1O)C4(C)C31CO1", "note": "(stereo not drawn)", "AC50": "< 260"}
{"smiles": "CC(=O)OC1C(=O)OCC23CCC4(C)OC4C2OC2CC(OC(=O)C=CC=CC(=O)OCCC1C)C3(C)C21CO1", "note": "(stereo not drawn)", "AC50": "< 260"}
{"smiles": "CC(=O)OC1CC2OC3C=C(C)CCC3(C)C1(C)C21CO1", "note": "(stereo not drawn)", "AC50": 829}
